Experiments:
[1] = system: A. alternata; assay: Fungicidal activity assay on PDA in sealed Petri dish (growth inhibition and mortality); type: cell-based, Alternaria alternata; conditions: Alternaria alternata, NA + number = still viable in the highest concentration tested (given as >), read-out: M - Mortality, minimal concentration that killed the fungus
[2] = system: B. cinerea; assay: as above; type: cell-based, Botrytis cinerea; conditions: Botrytis cinerea, NA + number = still viable in the highest concentration tested (given as >), read-out: M - Mortality, minimal concentration that killed the fungus
[3] = system: S. rolfsii; assay: as above; type: cell-based, Sclerotinia rolfsii; conditions: Agroathelia rolfsii; S. rolfsii; NA + number = still viable in the highest concentration tested (given as >); read-out: M - Mortality, minimal concentration that killed the fungus
[4] = system: F. oxysporum f. sp. radicis-cucumerium; assay: as above; type: cell-based, Fusarium oxysporum f. sp. radicis-cucumerinum; conditions: Fusarium oxysporum, NA + number = still viable in the highest concentration tested (given as >), read-out: M - Mortality, minimal concentration that killed the fungus
[5] = system: test fungi; assay: Fungicidal activity assay on PDA, summaries over the test fungi; type: cell-based; conditions: over the fungi tested
[6] = system: chlamydospores of Forl; assay: Open field experiment in sandy soil; type: in vivo, Fusarium oxysporum f sp. radicis-lycopersici; conditions: emulsion, 54 ppm active compound, 6 days
Experimental: In this experiment, an emulsions of trans-2-octenal (25% active compound) such as those described in Example 9 were used. The soil was inoculated with chlamydospores of Forl and sclerotia of S. rolfsii. Five gram of soil, highly inoculated with chlamydospores were wrapped in nylon tights and buried in the field at depths of 10, 30, and 50 cm. Tea bags containing 50 S. rolfsii sclerotia were prepared as described above and buried similarly. After 6 days, trans-2-octenal emulsion, at concentration of 54 ppm (active compound) was applied using the irrigation system. The same conditions were applied to a control plot except that the plot was irrigated with tap water without the compound. The plots were left open during the time of the experiment. After 6 days, the pathogens were removed from the soil and their viability was examined using PDA+tet culture plates. […] As shown in these figures, elimination of both phytopathogenic fungi occurred at the lowest depth of 10 cm.

[7] = system: Solanum nigrum seeds; assay: Viability of weed seeds buried in sandy soil; type: in vivo; conditions: 54 ppm of emulsion, depth 10 cm, 6 days in soil, evaluated 6 days after resowing
Experimental: The effect of trans-2-octenal was also examined on the weed Solanum nigrum. To this end, 20 seeds of this weed were put in tea bags and buried in sandy soil at the depth of 10 cm. Six (6) days later, 54 ppm of emulsion of trans-2-octenal were applied via the irrigation system. After additional 6 days the seeds were removed from the soil and sown in fresh loam pots. A control experiment was performed as above except that the seeds were irrigated with tap water without the compound. The viability of the seeds was evaluated after 6 days.

[8] = system: Meloidogyne javanica J2s; assay: Greenhouse nematocidal experiment with susceptible tomato plants in inoculated loam; type: in vivo; conditions: 30 ppm in soil, tomato harvested after 8 weeks
Experimental: The activity of trans-2-octenal against nematodes was examined in a greenhouse experiment using stage 2 juveniles of the rot-knot nematode Meloidogyne javanica. […] After 2 days, the inoculated soil was treated with 30 ppm of trans-2-octenal and incubated for additional 5 days. Then, susceptible tomato plants were planted, and allowed to grow in a growing chamber for 8 weeks. At the end of the experiment, the plants, along with their root systems, were harvested from their pots and evaluated for incidence of root galling. In addition, M. javanica eggs were extracted from each root and counted, and the number of eggs per gram root was calculated. As shown in FIGS. 14A-14D, trans-2-octenal reduced the galling index and the number of eggs per gram root. […] The activity of 2-cyclohexen-1-one against nematodes was examined in a greenhouse experiment using stage 2 juveniles of the rot-knot nematode Meloidogyne javanica. The experiment was performed as described for trans-2-octenal. […] After 2 days, the inoculated soil was treated with 15 or 31 ppm of 2-cyclohexen-1-one and incubated for additional 5 days. Then, susceptible tomato plants were planted, and allowed to grow in a growing chamber for 8 weeks. At the end of the experiment, the plants, along with their root systems, were harvested from their pots and evaluated for incidence of root galling. In addition, M. javanica eggs were extracted from each root and counted, and the number of eggs per gram root was calculated.

[9] = system: tomato seedlings; assay: Phytotoxicity: growth of tomato seedlings in treated sandy soil in pots; type: in vivo; conditions: soil treated with 54 ppm, nine days
Experimental: Sandy soil from a plot that was treated with 54 ppm of trans-2-octenal was removed to small pots in which either seeds of corn, cotton, and peanut were sown (FIGS. 16A-16C) or tomato seedlings were planted therein (FIG. 16E).

[10] = system: tomato strain Abigail; assay: Field phytotoxicity in loam soil, seedlings planted one day after application; type: in vivo; conditions: emulsion, viable seedlings counted eleven days after planting
[11] = system: tomato strain Ikram; conditions: in vivo, 11 days
Experimental: An experiment in a larger scale was performed in loam soil in which the seedling were planted directly in the treated plot. The soil was treated with 0, 25, 50, 100, 200, 400, 800, and 1,600 ppm of emulsion of trans-2-octenal. The compound was applied using the irrigation system. A day later, tomato seedling strains Ikram and Abigail and lettuce seedling strain Raviv (10 seedlings each) were planted into the treated soil of each concentration. Eleven days later, the number of viable seedlings was counted.

Compound: CCCCC/C=C/C=O [trans-2-octenal]
- MFC [1]: 12.5 µg/mL
- MFC [2]: 50 µg/mL
- MFC [3]: 6.25 µg/mL
- MFC [4]: 6.25 µg/mL
- concentrations that completely inhibited the fungi growth and killed the fungi [5]: 6.25-50 ppm
- viability of Forl chlamydospores ([6]; 30 and 50 cm depth): No elimination
- viability of Forl chlamydospores ([6]; depth 10 cm, open plot): elimination
- viability of the seeds [7]: eliminated seeds viability
- galling index [8]: reduced
- number of eggs per gram root [8]: reduced
- growth of the tomato seedling in treated versus untreated soil [9]: no significant difference
- concentration at which significant phytotoxic effect occurred [10]: 400 ppm
- concentration at which phytotoxic effect was displayed [11]: 800 ppm
